In publication PMC10410513, “Differential roles for ACBD4 and ACBD5 in peroxisome–ER interactions and lipid metabolism” (The Journal of Biological Chemistry, 2023):

Assays:
ACBD4 = target: T1, ACBD4 (Homo sapiens, UniProt Q8NC06); assay: competition with […]C18:1-CoA, pull-down on Ni-NTA resin; format: binding; settings: 2 uM protein, 5 uM [14C]C18:1-CoA, 0.2-20 uM competitor
T1 construct: recombinant MBP-His tagged, E. coli, amylose resin purified, tag kept
T1 sequence (Q8NC06 1-305 isoform Q8NC06-2): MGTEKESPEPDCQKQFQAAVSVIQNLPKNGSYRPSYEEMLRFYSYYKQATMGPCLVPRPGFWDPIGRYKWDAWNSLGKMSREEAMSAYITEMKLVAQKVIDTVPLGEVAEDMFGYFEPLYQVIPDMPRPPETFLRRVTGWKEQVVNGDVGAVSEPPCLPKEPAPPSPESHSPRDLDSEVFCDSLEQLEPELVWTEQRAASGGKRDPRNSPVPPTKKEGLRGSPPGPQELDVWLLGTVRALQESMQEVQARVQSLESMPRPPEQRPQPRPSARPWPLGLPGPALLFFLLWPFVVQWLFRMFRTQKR

ACBD5 = target: T2, ACBD5 (Homo sapiens, UniProt Q5T8D3); assay: as above; format: binding; settings: 2 uM protein, 5 uM [14C]C18:1-CoA, 0.2-20 uM competitor
T2 construct: recombinant MBP-His tagged, E. coli, amylose resin purified, tag kept
T2 sequence (Q5T8D3 1-490 isoform Q5T8D3-2): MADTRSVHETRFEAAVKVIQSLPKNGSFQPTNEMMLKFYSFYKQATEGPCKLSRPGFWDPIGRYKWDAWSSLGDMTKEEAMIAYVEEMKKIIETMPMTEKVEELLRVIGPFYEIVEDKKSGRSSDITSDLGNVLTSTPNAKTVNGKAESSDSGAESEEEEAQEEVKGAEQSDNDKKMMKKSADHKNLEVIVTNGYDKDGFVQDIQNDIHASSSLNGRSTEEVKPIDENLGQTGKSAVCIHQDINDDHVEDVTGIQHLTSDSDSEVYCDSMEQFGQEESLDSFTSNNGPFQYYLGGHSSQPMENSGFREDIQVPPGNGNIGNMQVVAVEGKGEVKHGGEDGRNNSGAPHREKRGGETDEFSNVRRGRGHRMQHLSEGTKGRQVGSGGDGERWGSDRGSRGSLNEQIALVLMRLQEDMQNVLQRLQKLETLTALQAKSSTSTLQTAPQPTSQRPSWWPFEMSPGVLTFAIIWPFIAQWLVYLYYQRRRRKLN

CCCCCCCCCCCCCCCCCCCCCCCC(=O)SCCNC(=O)CCNC(=O)[C@H](O)C(C)(C)COP(=O)(O)OP(=O)(O)OC[C@H]1O[C@@H](n2cnc3c(N)ncnc32)[C@H](O)[C@@H]1OP(=O)(O)O [C24-CoA]
competition with [14C]C18:1-CoA, pull-down on Ni-NTA resin (ACBD4): ACBD4, which displayed a similar preference for long and very-long acyl-CoAs | competition with [14C]C18:1-CoA, pull-down on Ni-NTA resin (ACBD5): a stronger preference for the very-long-chain C24-CoA compared to the two long-chain acyl-CoAs
